In PubChem BioAssay AID328 (DTP/NCI, 2004):
Several values for one entry are separate records, joined by “and”; a condition that tells them apart may be missing. Equal entries are not always repeated. Inconclusive results and toxic doses are left out.

Test system: BDF1 mice, P388 leukemia ip, median survival T/C
Assay: NCI In Vivo Anticancer Drug Screen. Data for tumor model P388 Leukemia (intraperitoneal) in B6D2F1 (BDF1) mice
Settings: endpoint: median survival time, higher = longer survival
Summary of the method: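 Mice carrying the transplantable tumour receive compound or vehicle. Survival is followed in each arm, and the treated measure is divided by the vehicle measure.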

[1] = dose: 100.0 mg/kg/injection, schedule: Q04DX003 (ip), vehicle: saline sonified
[2] = dose: 100.0 mg/kg/injection, schedule: Q01DX009 (ip), vehicle: Klucel (hydroxypropylcellulose) (HPC)
[3] = dose: 100.0 mg/kg/injection, schedule: Q04DX003 (ip), vehicle: Klucel (hydroxypropylcellulose) (HPC)
[4] = dose: 200.0 mg/kg/injection, schedule: Q04DX003 (ip), vehicle: Klucel (hydroxypropylcellulose) (HPC)
[5] = dose: 50.0 mg/kg/injection, schedule: Q04DX003 (ip), vehicle: saline with Tween-80
[6] = dose: 25.0 mg/kg/injection, schedule: Q01DX009 (ip), vehicle: Klucel (hydroxypropylcellulose) (HPC)
[7] = dose: 50.0 mg/kg/injection, schedule: Q01DX009 (ip), vehicle: Klucel (hydroxypropylcellulose) (HPC)
[8] = dose: 50.0 mg/kg/injection, schedule: Q04DX003 (ip), vehicle: Klucel (hydroxypropylcellulose) (HPC)
[9] = dose: 25.0 mg/kg/injection, schedule: Q01DX009 (ip), vehicle: saline with Tween-80
[10] = dose: 50.0 mg/kg/injection, schedule: Q01DX009 (ip), vehicle: saline with Tween-80
[11] = dose: 100.0 mg/kg/injection, schedule: Q01DX009 (ip), vehicle: saline with Tween-80
[12] = dose: 100.0 mg/kg/injection, schedule: Q04DX003 (ip), vehicle: saline with Tween-80
[13] = dose: 200.0 mg/kg/injection, schedule: Q01DX009 (ip), vehicle: saline with Tween-80
[14] = dose: 200.0 mg/kg/injection, schedule: Q04DX003 (ip), vehicle: saline with Tween-80
[15] = dose: 400.0 mg/kg/injection, schedule: Q04DX003 (ip), vehicle: saline with Tween-80

For `CSc1ccc(NC(=O)C(O)C(O)C(O)C(O)CO)cc1` (stereo unspecified), the T/C (dose: 75.0 mg/kg/injection, schedule: Q01DX009 (ip), vehicle: saline with Tween-80) was 100 % of control, the T/C [1] was 104 % of control and the T/C (dose: 150.0 mg/kg/injection, schedule: Q01DX009 (ip), vehicle: saline with Tween-80) was 100 % of control. For the same compound, the T/C (dose: 200.0 mg/kg/injection, schedule: Q04DX003 (ip), vehicle: saline sonified) was 104 % of control, the T/C (dose: 300.0 mg/kg/injection, schedule: Q01DX009 (ip), vehicle: saline with Tween-80) was 100 % of control and the T/C (dose: 400.0 mg/kg/injection, schedule: Q04DX003 (ip), vehicle: saline sonified) was 104 % of control.

With `Cc1cc(N(CCCl)CCCl)ccc1C=NC1CCCC1` the T/C [2] was 150 % of control, the T/C [3] was 95 % of control and the T/C (dose: 133.0 mg/kg/injection, schedule: Q01DX009 (ip), vehicle: Klucel (hydroxypropylcellulose) (HPC)) was 169 % of control. The T/C (dose: 200.0 mg/kg/injection, schedule: Q01DX009 (ip), vehicle: Klucel (hydroxypropylcellulose) (HPC)) was 188 % of control and 200 % of control and the T/C [4] was 108 % of control.

`Cc1cc(/C=C/c2cc[n+](C)c3ccccc23)c(O)c2ncccc12` was tested, and the T/C (dose: 3.0 mg/kg/injection, schedule: Q01DX009 (ip), vehicle: saline) was 163 % of control, the T/C (dose: 6.0 mg/kg/injection, schedule: Q01DX009 (ip), vehicle: Klucel (hydroxypropylcellulose) (HPC)) was 155 % of control and the T/C (dose: 6.0 mg/kg/injection, schedule: Q01DX009 (ip), vehicle: saline) was 159 % of control. For the same compound, the T/C (dose: 12.0 mg/kg/injection, schedule: Q01DX009 (ip), vehicle: Klucel (hydroxypropylcellulose) (HPC)) was 165 % of control, the T/C (dose: 12.0 mg/kg/injection, schedule: Q01DX009 (ip), vehicle: saline) was 159 % of control and the T/C (dose: 24.0 mg/kg/injection, schedule: Q01DX009 (ip), vehicle: saline) was 168 % of control.

For `CC1CCCC(CN=Cc2cc([N+](=O)[O-])ccc2O)[N-]1.CC1CCCC(CN=Cc2cc([N+](=O)[O-])ccc2O)[N-]1.[Ni+2]` (stereo unspecified), the T/C (dose: 12.5 mg/kg/injection, schedule: Q04DX003 (ip), vehicle: saline with Tween-80) was 100 % of control, the T/C (dose: 25.0 mg/kg/injection, schedule: Q04DX003 (ip), vehicle: saline with Tween-80) was 100 % of control and the T/C [5] was 100 % of control.

In the case of `CCOC(=O)N(C)c1ccccc1`, the T/C [6] is reported as 95 % of control, the T/C (dose: 25.0 mg/kg/injection, schedule: Q04DX003 (ip), vehicle: Klucel (hydroxypropylcellulose) (HPC)) is reported as 92 % of control and the T/C [7] is reported as 91 % of control. The T/C [8] was 96 % of control, the T/C [2] was 87 % of control and the T/C [3] was 92 % of control.

`CCOC(=O)c1c[nH]c2cc(C(F)(F)F)ccc2c1=O` was tested, and the T/C (dose: 6.25 mg/kg/injection, schedule: Q01DX009 (ip), vehicle: gum acacia) was 116 % of control, the T/C (dose: 12.5 mg/kg/injection, schedule: Q01DX009 (ip), vehicle: gum acacia) was 100 % of control and the T/C (dose: 25.0 mg/kg/injection, schedule: Q01DX009 (ip), vehicle: gum acacia) was 98 % of control. The T/C (dose: 25.0 mg/kg/injection, schedule: Q04DX003 (ip), vehicle: gum acacia) was 91 % of control and the T/C (dose: 100.0 mg/kg/injection, schedule: Q04DX003 (ip), vehicle: gum acacia) was 87 % of control.

For `CCOC(=O)C(C#N)C(C(C)=O)C(=O)OCC` (stereo unspecified), the T/C [9] was 118 % of control, the T/C (dose: 25.0 mg/kg/injection, schedule: Q04DX003 (ip), vehicle: saline sonified) was 95 % of control and the T/C [10] was 90 % of control. The T/C (dose: 50.0 mg/kg/injection, schedule: Q04DX003 (ip), vehicle: saline sonified) was 100 % of control and the T/C [1] was 104 % of control.

For `CCSc1nc2ccc(Nn3nnnc3-c3ccccc3)cc2s1`, the T/C (dose: 12.5 mg/kg/injection, schedule: Q01DX009 (ip), vehicle: Klucel (hydroxypropylcellulose) (HPC)) was 272 % of control, the T/C [6] was 98 % of control and the T/C [7] was 118 % of control.

In the case of `COc1cc(O)c2c(c1)C1=C(C)C(C)(O)OC1=CC2=O` (stereo unspecified), the T/C (dose: 100.0 mg/kg/injection, schedule: Q01DX001 (ip), vehicle: Klucel (hydroxypropylcellulose) (HPC)) is reported as 95 % of control, the T/C (dose: 200.0 mg/kg/injection, schedule: Q01DX001 (ip), vehicle: Klucel (hydroxypropylcellulose) (HPC)) is reported as 100 % of control and the T/C (dose: 400.0 mg/kg/injection, schedule: Q01DX001 (ip), vehicle: Klucel (hydroxypropylcellulose) (HPC)) is reported as 86 % of control.

For `Nc1nc2ncc(CNc3ccc(C(=O)NC(CCC(=O)O)C(=O)O)cc3)nc2c(=O)[nH]1` (stereo unspecified), the T/C (dose: 12.5 mg/kg/injection, schedule: Q01DX009 (ip), vehicle: saline with Tween-80) was 100 % of control, the T/C [9] was 106 % of control and the T/C [10] was 107 % of control. The T/C (dose: 50.0 mg/kg/injection, schedule: Q01DX010 (ip), vehicle: saline) was 100 % of control.

With `CCCCCCCCCCCCCC[n+]1ccccc1` the T/C (dose: 16.0 micrograms/kg/injection, schedule: Q01DX009 (ip), vehicle: saline with Tween-80) was 87 % of control, the T/C (dose: 32.0 micrograms/kg/injection, schedule: Q01DX009 (ip), vehicle: saline with Tween-80) was 100 % of control and the T/C (dose: 62.5 micrograms/kg/injection, schedule: Q01DX009 (ip), vehicle: saline) was 113 % of control. The T/C (dose: 62.5 micrograms/kg/injection, schedule: Q01DX010 (ip), vehicle: saline) was 115 % of control, the T/C (dose: 125.0 micrograms/kg/injection, schedule: Q01DX009 (ip), vehicle: saline) was 122 % of control and the T/C (dose: 250.0 micrograms/kg/injection, schedule: Q01DX010 (ip), vehicle: saline) was 110 % of control.

With `CCO/C=C/C(=O)NC(=O)OCC` the T/C [11] was 98 % of control, the T/C [12] was 95 % of control and the T/C [13] was 107 % of control. The T/C [14] was 95 % of control, the T/C (dose: 400.0 mg/kg/injection, schedule: Q01DX009 (ip), vehicle: saline with Tween-80) was 109 % of control and the T/C [15] was 90 % of control.

With `O=C1NC(c2ccccc2)(c2ccccc2)C(=O)N1CCS` the T/C (dose: 6.25 mg/kg/injection, schedule: Q01DX009 (ip), vehicle: saline) was 89 % of control and 122 % of control, the T/C (dose: 12.5 mg/kg/injection, schedule: Q01DX009 (ip), vehicle: saline) was 104 % of control and 107 % of control and the T/C (dose: 25.0 mg/kg/injection, schedule: Q01DX009 (ip), vehicle: saline) was 106 % of control and 116 % of control. The T/C (dose: 25.0 mg/kg/injection, schedule: Q04DX003 (ip), vehicle: saline) was 98 % of control and the T/C (dose: 50.0 mg/kg/injection, schedule: Q01DX009 (ip), vehicle: saline) was 95 % of control and 105 % of control.

`CC(Cc1ccccc1)C(N)=O` (stereo unspecified) was tested, and the T/C [5] was 105 % of control, the T/C [12] was 98 % of control and the T/C [14] was 113 % of control.

In the case of `CC(c1ccccc1)c1ccc(O)cc1` (stereo unspecified), the T/C [10] is reported as 110 % of control, the T/C [11] is reported as 110 % of control and the T/C (dose: 100.0 mg/kg/injection, schedule: Q04DX003 (ip), vehicle: saline) is reported as 100 % of control. For the same compound, the T/C [13] was 110 % of control and the T/C (dose: 200.0 mg/kg/injection, schedule: Q04DX003 (ip), vehicle: saline) was 91 % of control.

In the case of `CC(=O)OC1C=CC(=O)OC1C1OC1C` (stereo unspecified), the T/C (dose: 3.0 mg/kg/injection, schedule: Q01DX010 (ip), vehicle: carboxymethylcellulose (CMC)) is reported as 90 % of control, the T/C (dose: 6.0 mg/kg/injection, schedule: Q01DX010 (ip), vehicle: carboxymethylcellulose (CMC)) is reported as 90 % of control and the T/C (dose: 12.0 mg/kg/injection, schedule: Q01DX010 (ip), vehicle: carboxymethylcellulose (CMC)) is reported as 100 % of control. For the same compound, the T/C (dose: 25.0 mg/kg/injection, schedule: Q01DX010 (ip), vehicle: carboxymethylcellulose (CMC)) was 109 % of control.

In the case of `O=c1cc(Cl)[nH]c(=O)[nH]1`, the T/C [5] is reported as 97 % of control, the T/C [12] is reported as 114 % of control and the T/C [14] is reported as 97 % of control. For the same compound, the T/C [15] was 97 % of control.

For `CN1/C(=C/C=C/N=C(C#N)C#N)C(C)(C)c2ccccc21`, the T/C [10] was 104 % of control, the T/C [11] was 96 % of control and the T/C [13] was 96 % of control.

With `O/N=C(\c1ccccc1)C(c1ccccc1)C(Cl)(Cl)Cl` (stereo unspecified) the T/C [3] was 100 % of control, the T/C [4] was 100 % of control and the T/C (dose: 400.0 mg/kg/injection, schedule: Q04DX003 (ip), vehicle: Klucel (hydroxypropylcellulose) (HPC)) was 100 % of control.

With `COC(=O)C(CCCCNC(=O)OCc1ccccc1)NC(=O)C(CCCCNC(=O)OCc1ccccc1)NC(=O)OC(C)(C)C` (stereo unspecified) the T/C (dose: 200.0 mg/kg/injection, schedule: Q01DX005 (ip), vehicle: saline with Tween-80) was 90 % of control.

For `CC1=C/C(=N/NC(N)=O)CC(C)C1` (stereo unspecified), the T/C [8] was 100 % of control, the T/C [3] was 105 % of control and the T/C [4] was 100 % of control.

With `COC(=O)CCc1ccc(NP(=O)(N2CC2)N2CC2)cc1` the T/C (dose: 66.0 mg/kg/injection, schedule: Q01DX009 (ip), vehicle: saline with Tween-80) was 177 % of control and the T/C (dose: 300.0 mg/kg/injection, schedule: Q04DX003 (ip), vehicle: saline with Tween-80) was 154 % of control.
